# Data published in paper PMC8286840, “Identifying SARS-CoV-2 antiviral compounds by screening for small molecule inhibitors of Nsp3 papain-like protease” (Biochemical Journal, 2021).
# Structures can show the parent of a compound that is named as a salt. Where two headings read alike, the source gives them in different places.
# Legend:
# [1] = molecular target: T1, SARS-CoV-2 PLpro (nsp3 1564–1878) (Severe acute respiratory syndrome coronavirus 2, UniProt P0DTD1); assay: biochemical; set-up: FRET-quenched peptide (Pro3) cleavage by PLpro, 10 min pre-incubation, slope over 20 min, normalised to no-compound control; conditions: low concentration screen, read-out: % of control remaining
# [2] = molecular target: T1, SARS-CoV-2 PLpro (nsp3 1564–1878); assay: biochemical; set-up: FRET-quenched peptide (Pro3) cleavage by PLpro, 10 min pre-incubation, slope over 20 min, normalised to no-compound control; conditions: high concentration screen, read-out: % of control remaining
smiles,measurement,setting,value
O=C1N[C@H](C(=O)O)CS1 [Procysteine],remaining activity at 1.25 µM,[1]; Well no.=3897,104%
same,remaining activity at 3.75 µM,[2]; Well no.=3897,103%
CCCNC(=O)[C@H]1O[C@@H]1C(=O)N[C@H](C(=O)N1CCC[C@H]1C(=O)OC)[C@@H](C)CC [CA-074 methyl ester],remaining activity at 1.25 µM,[1]; Well no.=8166,105%
same,remaining activity at 3.75 µM,[2]; Well no.=8166,100%
CC(O)(CS(=O)(=O)c1ccc(F)cc1)C(=O)Nc1ccc(C#N)c(C(F)(F)F)c1 (centres unmarked) [Bicalutamide],remaining activity at 1.25 µM,[1]; Well no.=1860,97.5%
same,remaining activity at 3.75 µM,[2]; Well no.=1860,99.2%
O=c1c(-c2ccc(O)cc2)coc2cc(O)ccc12 [Daidzein],remaining activity at 1.25 µM,[1]; Well no.=438,102%
same,remaining activity at 1.25 µM,[1]; Well no.=3219,103%
same,remaining activity at 3.75 µM,[2]; Well no.=438,99.2%
same,remaining activity at 3.75 µM,[2]; Well no.=3219,104%
"COC1=C(OC)C(=O)c2ccccc2C1=O [2,3-Dimethoxy-1,4-naphthoquinone]",remaining activity at 1.25 µM,[1]; Well no.=739,98%
same,remaining activity at 3.75 µM,[2]; Well no.=739,96.9%
Cc1cn([C@@H]2O[C@H](CO)[C@@H](O)[C@H]2O)c(=O)[nH]c1=O [5-Methyluridine],remaining activity at 1.25 µM,[1]; Well no.=6213,101%
same,remaining activity at 1.25 µM,[1]; Well no.=8891,96.6%
same,remaining activity at 3.75 µM,[2]; Well no.=6213,91.5%
same,remaining activity at 3.75 µM,[2]; Well no.=8891,98.5%
CCNCc1nc2c(N)nc3ccccc3c2n1CC(C)(C)O [Gardiquimod trifluoroacetate],remaining activity at 1.25 µM,[1]; Well no.=8131,105%
same,remaining activity at 3.75 µM,[2]; Well no.=8131,103%
Cc1cccn2c(=O)c(/C=C(\C#N)c3nc4ccccc4s3)c(Oc3ccc(F)cc3)nc12 [CCG-63808],remaining activity at 1.25 µM,[1]; Well no.=7037,102%
same,remaining activity at 3.75 µM,[2]; Well no.=7037,101%
CCOC(=O)c1cnc2c(cnn2CC)c1NN=C(C)C [Etazolate hydrochloride],remaining activity at 1.25 µM,[1]; Well no.=550,101%
same,remaining activity at 3.75 µM,[2]; Well no.=550,103%
O=C(CCCN1CCC(O)(c2cccc(C(F)(F)F)c2)CC1)c1ccc(F)cc1 [Trifluperidol],remaining activity at 1.25 µM,[1]; Well no.=2296,95.3%
same,remaining activity at 3.75 µM,[2]; Well no.=2296,96.6%
Nc1nc2[nH]c(=O)cnc2c(=O)[nH]1 [Isoxanthopterin],remaining activity at 1.25 µM,[1]; Well no.=1109,96.8%
same,remaining activity at 3.75 µM,[2]; Well no.=1109,100%
COc1cc(N)c(Cl)cc1C(=O)N[C@@H]1CCN(CCCOc2ccc(F)cc2)C[C@@H]1OC (racemic) [Cisapride],remaining activity at 1.25 µM,[1]; Well no.=6909,91.7%
same,remaining activity at 3.75 µM,[2]; Well no.=6909,90.7%
CC/C=C\C/C=C\C/C=C\C/C=C\C/C=C\CCCC(=O)O [Eicosapentaenoic acid],remaining activity at 1.25 µM,[1]; Well no.=4251,103%
same,remaining activity at 1.25 µM,[1]; Well no.=4448,92.3%
same,remaining activity at 1.25 µM,[1]; Well no.=7315,108%
same,remaining activity at 3.75 µM,[2]; Well no.=4251,101%
same,remaining activity at 3.75 µM,[2]; Well no.=4448,96.1%
same,remaining activity at 3.75 µM,[2]; Well no.=7315,103%
CN(C)CCC=C1c2ccccc2CCc2ccccc21 [Amitriptyline hydrochloride],remaining activity at 1.25 µM,[1]; Well no.=150,103%
same,remaining activity at 3.75 µM,[2]; Well no.=150,98.5%
C[C@@H]1CN(Cc2ccc(F)cc2)[C@@H](C)CN1C(=O)c1cc2c(C(=O)C(=O)N(C)C)cn(C)c2cc1Cl [Talmapimod],remaining activity at 1.25 µM,[1]; Well no.=7304,99.8%
same,remaining activity at 3.75 µM,[2]; Well no.=7304,91.9%
Nc1ncnc2nc[nH]c12 [Adenine sulfate],remaining activity at 1.25 µM,[1]; Well no.=5006,97.9%
same,remaining activity at 3.75 µM,[2]; Well no.=5006,85.9%
CCC[C@H](N[C@@H](C)C(=O)N1[C@H](C(=O)O)C[C@@H]2CCCC[C@@H]21)C(=O)OCC [Perindopril (erbumine)],remaining activity at 1.25 µM,[1]; Well no.=8070,106%
same,remaining activity at 3.75 µM,[2]; Well no.=8070,102%
Cc1ncc([N+](=O)[O-])n1CC(C)O (centres unmarked) [Secnidazole],remaining activity at 1.25 µM,[1]; Well no.=2247,99.7%
same,remaining activity at 3.75 µM,[2]; Well no.=2247,97.7%
"Brc1c(NC2=NCCN2)ccc2nccnc12 [UK 14,304 (tartrate)]",remaining activity at 1.25 µM,[1]; Well no.=6572,98.5%
same,remaining activity at 3.75 µM,[2]; Well no.=6572,102%
CNCC(O)c1ccc(O)c(O)c1 [L-Epinephrine (Bitartrate)],remaining activity at 1.25 µM,[1]; Well no.=6952,98%
same,remaining activity at 3.75 µM,[2]; Well no.=6952,94.1%
Cn1c(=N)ccn([C@@H]2O[C@H](CO)[C@@H](O)[C@H]2O)c1=O [3-Methylcytidine],remaining activity at 1.25 µM,[1]; Well no.=7960,97.2%
same,remaining activity at 3.75 µM,[2]; Well no.=7960,98.7%
NCCC(O)(P(=O)(O)O)P(=O)(O)O [Pamidronate Disodium],remaining activity at 1.25 µM,[1]; Well no.=4773,96.6%
same,remaining activity at 3.75 µM,[2]; Well no.=4773,97.3%
S=C=Nc1cccc(C2(N3CCCCC3)CCCCC2)c1 [Metaphit methanesulfonate],remaining activity at 1.25 µM,[1]; Well no.=991,98.8%
same,remaining activity at 3.75 µM,[2]; Well no.=991,98.9%
Nc1nccc2c1ncn2[C@@H]1O[C@H](CO)[C@@H](O)[C@H]1O [3-deazaadenosine],remaining activity at 1.25 µM,[1]; Well no.=488,94.5%
same,remaining activity at 3.75 µM,[2]; Well no.=488,95.2%
CCCNC(=O)NS(=O)(=O)c1ccc(Cl)cc1 [Chlorpropamide],remaining activity at 1.25 µM,[1]; Well no.=331,96.9%
same,remaining activity at 3.75 µM,[2]; Well no.=331,97.8%
COc1ccc(-n2c(SCC#N)nc3sc4c(c3c2=O)CCCC4)cc1 [Necrostatin-5],remaining activity at 1.25 µM,[1]; Well no.=6060,98.5%
same,remaining activity at 3.75 µM,[2]; Well no.=6060,95.8%
"OB1OCc2cc(F)ccc21 [5-fluoro-2,1-benzoxaborol-1(3H)-ol]",remaining activity at 1.25 µM,[1]; Well no.=5477,103%
same,remaining activity at 3.75 µM,[2]; Well no.=5477,109%
CC(=O)NNC(=O)N1Cc2ccccc2Oc2ccc(Cl)cc21 [SC 19220],remaining activity at 1.25 µM,[1]; Well no.=1408,101%
same,remaining activity at 3.75 µM,[2]; Well no.=1408,100%
CC[C@H]1OC(=O)C[C@@H](O)[C@H](C)[C@@H](O[C@@H]2O[C@H](C)[C@@H](O[C@H]3C[C@@](C)(O)[C@@H](O)[C@H](C)O3)[C@H](N(C)C)[C@H]2O)[C@@H](CC=O)C[C@@H](C)C(=O)/C=C/C(C)=C/[C@@H]1CO[C@@H]1O[C@H](C)[C@@H](O)[C@@H](OC)[C@H]1OC [Tylosin],remaining activity at 1.25 µM,[1]; Well no.=2010,96.7%
same,remaining activity at 3.75 µM,[2]; Well no.=2010,97.8%
CC(C)C[C@H](NC(=O)[C@H](Cc1ccccc1)NC(=O)c1cnccn1)B(O)O [Bortezomib],remaining activity at 1.25 µM,[1]; Well no.=1768,99.9%
same,remaining activity at 1.25 µM,[1]; Well no.=6302,98.1%
same,remaining activity at 3.75 µM,[2]; Well no.=1768,101%
C[N+]1(C)[C@@H]2C[C@@H](OC(=O)[C@H](CO)c3ccccc3)C[C@H]1[C@@H]1O[C@@H]12 [(-)-Scopolamine methyl bromide],remaining activity at 1.25 µM,[1]; Well no.=1510,96.7%
same,remaining activity at 3.75 µM,[2]; Well no.=1510,97.5%
COc1ccccc1OCCNCC(O)COc1cccc2[nH]c3ccccc3c12 (centres unmarked) [Carvedilol],remaining activity at 1.25 µM,[1]; Well no.=1569,99.6%
same,remaining activity at 1.25 µM,[1]; Well no.=4051,103%
same,remaining activity at 1.25 µM,[1]; Well no.=6702,97.7%
same,remaining activity at 3.75 µM,[2]; Well no.=1569,103%
same,remaining activity at 3.75 µM,[2]; Well no.=4051,104%
same,remaining activity at 3.75 µM,[2]; Well no.=6702,97.8%
